This is an account of results in US10081616B2, “Soluble epoxide hydrolase inhibitors and uses thereof” (X-Chem, Inc., priority 2014, dated 2018).

This assay has as its target T1, sEH (Homo sapiens, UniProt P34913).
T1 construct: purchased Cayman Chemical 10011669
T1 sequence (P34913 1-555): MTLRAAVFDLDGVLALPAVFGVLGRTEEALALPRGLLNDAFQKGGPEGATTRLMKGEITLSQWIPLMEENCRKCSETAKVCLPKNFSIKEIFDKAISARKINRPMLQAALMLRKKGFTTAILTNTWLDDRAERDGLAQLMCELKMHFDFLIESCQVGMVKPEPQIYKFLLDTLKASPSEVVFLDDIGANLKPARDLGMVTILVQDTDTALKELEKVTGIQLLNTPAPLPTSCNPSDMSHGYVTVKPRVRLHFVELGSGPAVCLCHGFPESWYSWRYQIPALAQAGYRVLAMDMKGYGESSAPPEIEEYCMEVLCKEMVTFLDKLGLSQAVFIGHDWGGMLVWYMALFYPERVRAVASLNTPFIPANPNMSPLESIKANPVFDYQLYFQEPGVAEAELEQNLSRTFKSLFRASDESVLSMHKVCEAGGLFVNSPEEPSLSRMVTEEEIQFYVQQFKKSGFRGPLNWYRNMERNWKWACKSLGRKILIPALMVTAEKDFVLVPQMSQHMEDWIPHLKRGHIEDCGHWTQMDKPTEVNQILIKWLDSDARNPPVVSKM
Put plainly: sEH inhibition assay (Epoxy Fluor 7 substrate, fluorescence). The class given is biochemical. As to conditions: enzyme 3 nM, 15 min pre-incubation at room temperature, read at 30° C. for 20 minutes, read-out: IC50 against sEH. The protocol:
The sEH inhibition assay was conducted in costar 384 well black NBS plates (Corning). The assay buffer used was 25 mM Tris pH 7.0 and 0.1 mg/ml BSA. The enzyme was purchased from Cayman Chemical (10011669) at a stock concentration of 15.625 μM. The Epoxy Fluor 7 substrate also from Cayman Chemical (10008610) was dissolved in DMSO at a concentration of 25.68 mM. This was further diluted ten-fold in DMSO to a concentration of 2.568 mM. Competition assays were performed with 5 μL Epoxy Fluor 7 diluted from DMSO stock to a final concentration of 5 nM, 5 μL of competitor (final concentration 10 μM-0.5 nM), and 10 μL enzyme (final concentration of 3 nM) in the assay buffer for a total volume of 20 μL. The compound was pre-incubated with enzyme for 15 min at room temperature prior to addition of substrate. The plate was read kinetically at excitation 330 nm and emission 465 nm wavelengths at 30° C. for 20 minutes on the Tecan M1000. The rate was calculated for the linear portion of the curves (2.5-12.5 minutes) and data fit to a sigmoidal curve.

As for `CN(CCn1cccn1)C(=O)c1ccc(-c2cccc(C(=O)NC3CCCCC3)c2)nc1` [Compound 1, N-(2-(1H-pyrazol-1-yl)ethyl)-6-(3-(cyclohexylcarbamoyl)phenyl)-N-methylnicotinamide], the IC50 stood at 2 nM.
